Source: the PolyMetriX glass transition set
± gives the standard deviation of the reports.

| SMILES | glass transition temperature |
| --- | --- |
| *CC(*)OC (repeat unit) [Poly(methyl vinyl ether)] | -26.97 ± 3.8 °C |
| */C=C/c1ccc(N(CC)Cc2ccccc2CN(CC)c2ccc(/C=C/c3ccc(/C=C(\C#N)S(=O)(=O)/C(C#N)=C/c4ccc(*)s4)s3)cc2)cc1 (repeat unit) | 178.00 °C |
| *OC(CCCCCC)CC(*)=O (repeat unit) | -47.00 °C |
| *c1ccc(-c2cc(C(C)(C)C)c(Oc3ccc(-n4c(=O)c5cc6c(=O)n(*)c(=O)c6cc5c4=O)cc3C(F)(F)F)c(C(C)(C)C)c2)cc1 (repeat unit) | 420.00 °C |
| *CCOCCOc1ccc(C(=O)OC(=O)c2ccc(O*)cc2)cc1 (repeat unit) | 41.00 °C |
| *c1cccc(S(=O)(=O)c2cccc(-n3c(=O)c4cc5c(=O)n(*)c(=O)c5cc4c3=O)c2)c1 (repeat unit) | 360.00 °C |
| *CC(*)(C)C(=O)OCCCCC(F)(F)C(F)(F)C(F)(F)C(F)(F)C(F)(F)C(F)(F)F (repeat unit) | 23.00 °C |
| *Oc1ccc(CC(NC(=O)Cc2ccc(OC(=O)CC(C)CCC(*)=O)cc2)C(=O)OCCCCCCCC)cc1 (repeat unit) | 30.00 °C |
| *CC(*)(C)C(=O)OCC(F)(F)C(F)(F)C(F)(F)C(F)F (repeat unit) | 47.00 °C |
| *CC1CCCC(Cn2c(=O)c3cc4c(=O)n(*)c(=O)c4cc3c2=O)C1 (repeat unit) | 263.00 °C |
| *c1cc(C(c2ccc(OCCN(C)c3ccc(/C=C/C4=CC(=C(/C#N)S(C)(=O)=O)/CC(C)(C)C4)cc3)c(N3C(=O)c4ccc(Oc5ccc6c(c5)C(=O)N(*)C6=O)cc4C3=O)c2)(C(F)(F)F)C(F)(F)F)ccc1OCCN(C)c1ccc(/C=C/C2=CC(=C(/C#N)S(C)(=O)=O)/CC(C)(C)C2)cc1 (repeat unit) | 225.00 °C |
| *CC(*)(C)C(=O)OCCCCCCCCCCOc1ccc(/N=N/c2ccc(C#N)cc2)cc1 (repeat unit) | 51.00 °C |
| *CC(*)c1ccc(OCCC(C)C)cc1 (repeat unit) | 57.00 °C |
| *c1cc(C(=O)NCCCCCCCC)cc(N2C(=O)c3ccc(-c4ccc5c(c4)C(=O)N(*)C5=O)cc3C2=O)c1 (repeat unit) | 245.50 °C |
| *CCCCCC(*)C (repeat unit) | -66.00 °C |
| *C(=O)NCC(C)(C)CNC(=O)c1ncn(C)c1* (repeat unit) | 152.00 °C |
| *O[Si](C)(C)O[Si](C)(C)O[Si](C)(C)O[Si](C)(C)O[Si](C)(C)OC(C)CCCCC(*)C (repeat unit) | -104.00 °C |
| *C(=O)OCCOCCOC(=O)c1ccc(N2C(=O)c3ccc(*)cc3C2=O)cc1 (repeat unit) | 101.00 °C |
| *CCC(C)CC(C)(C)CNC(=O)c1ccc(C(=O)N*)cc1 (repeat unit) | 147.00 °C |

| SMILES | glass transition temperature |
| --- | --- |
| *C1C2CC(C(=O)OCCc3ccc(N(c4ccccc4)c4cccc(C)c4)cc3)C(C2)C1* (repeat unit) | 305.00 °C |
| *c1ccc2c(c1)C(=O)N(c1ccc(S(=O)(=O)c3ccc(N4C(=O)c5ccc(C(*)(C(F)(F)F)C(F)(F)F)cc5C4=O)cc3)cc1)C2=O (repeat unit) | 336.50 ± 0.7 °C |
| *CCC(=O)NCCCCCCNC(=O)CCS* (repeat unit) | 27.00 °C |
| *CC(*)c1ccc([Si](O[Si](C)(C)C)(O[Si](C)(C)C)O[Si](C)(C)C)cc1 (repeat unit) | 114.00 °C |
| *CCCCCCOC(=O)OCCCCCCN1C(=O)c2ccc(C(=O)c3ccc4c(c3)C(=O)N(*)C4=O)cc2C1=O (repeat unit) | 76.00 °C |
| *CC(*)(C)C(=O)OCCCCCCOc1ccc(C(=O)Oc2ccc(OC)cc2)cc1OC (repeat unit) | 49.00 °C |
| *CC(*)(C)C(=O)OCCOCCOCCOCCOCCOCCOCCOCCOC (repeat unit) | -58.00 °C |
| *Oc1ccc(S(=O)(=O)c2ccc(*)cc2)cc1 (repeat unit) | 225.00 °C |
| *CC(*)(C)C(=O)OC1CCC1 (repeat unit) | 119.00 °C |
| *CCC[Si](C)(C)O[Si](C)(C)CCCN1C(=O)c2ccc(-c3ccc4c(c3)C(=O)N(*)C4=O)cc2C1=O (repeat unit) | 75.00 °C |
| *CCN(CCN1C(=O)c2ccc(C(c3ccc4c(c3)C(=O)N(*)C4=O)(C(F)(F)F)C(F)(F)F)cc2C1=O)c1ccc(/N=N/c2ccc(C3OCCO3)cc2)cc1 (repeat unit) | 178.00 °C |
| *CCCC1CC(=O)N(*)C(=O)C1 (repeat unit) | 90.00 °C |
| *CC(*)c1ccc(-c2ccc3c(c2)C(CCCCCC)(CCCCCC)c2ccccc2-3)cc1 (repeat unit) | 81.2 °C |
| *CCCCCNc1nc(NCCCCCc2nc3cc(-c4ccc5[nH]c(*)nc5c4)ccc3[nH]2)nc(N(CC)CC)n1 (repeat unit) | 190.00 °C |
| *CCCCCCOC(=O)c1cc(OCCCCCCOc2ccc(/N=N/c3ccc(C#N)cc3)cc2)cc(C(=O)OCCCCCCN2C(=O)c3ccc(-c4ccc5c(c4)C(=O)N(*)C5=O)cc3C2=O)c1 (repeat unit) | 93.00 °C |
| *C(=O)NCCCCCCNC(=O)c1ncn(C)c1* (repeat unit) | 86.00 °C |
| */C=C/C1CC(*)C(C(=O)OCCNC(C)(C)C)C1 (repeat unit) | 29.00 °C |
| *O[Si](*)(CCCOCCOCCOCCOCCOCCOCCOC)CCCOCCOCCOCCOCCOCCOCCOC (repeat unit) | -68.90 °C |

More lines, now with the values ahead:

| glass transition temperature | SMILES |
| --- | --- |
| 282.00 °C | *c1ccc(Oc2ccc(NC(=O)c3cccc(C(=O)Nc4ccc(Oc5ccc(-n6c(=O)c7cc8c(=O)n(*)c(=O)c8cc7c6=O)cc5)cc4)c3)cc2)cc1 (repeat unit) |
| 234.00 °C | *c1ccc(Oc2cccc(Oc3ccc(N4C(=O)c5ccc(-c6ccc7c(c6)C(=O)N(*)C7=O)cc5C4=O)cc3)c2)cc1 (repeat unit) |
| 208.00 °C | *Oc1ccc(Oc2ccc(NC(=O)c3cccc(C(=O)Nc4ccc(*)cc4)c3)cc2)cc1C(C)(C)C (repeat unit) |
| 271.00 °C | *c1ccc(Cc2ccc(N3C(=O)c4ccc(Oc5ccc6c(c5)C(=O)N(*)C6=O)cc4C3=O)cc2)cc1 (repeat unit) |
| 48.00 °C | *CC(*)C(=O)Oc1ccc(C(=O)Oc2ccc(OC(=O)c3ccc(OCCCCC)cc3)cc2)cc1 (repeat unit) |
| 290.00 °C | *Cc1ccc2oc(=O)c(C(=O)Nc3ccc(Oc4ccc(Oc5ccc(NC(=O)c6cc7cc(*)ccc7oc6=O)cc5)cc4)cc3)cc2c1 (repeat unit) |
| 253.20 °C | *Nc1ccc(C(=O)c2ccc(NC(=O)c3cccc(C(*)=O)c3)cc2)cc1 (repeat unit) |
| 76.00 °C | *Oc1ccc(CC(NC(=O)CCc2ccc(OC(=O)COCC(*)=O)cc2)C(=O)OCc2ccccc2)cc1 (repeat unit) |
| 287.00 °C | *c1ccc(C(=O)c2ccc(C(=O)c3ccc(Oc4ccc(-c5nn(*)c(=O)c6ccccc56)c(F)c4)cc3)cc2)cc1 (repeat unit) |
| 133.00 °C | *c1ccc(Oc2ccc(Oc3ccc(Oc4ccc(-c5cnc6cc(-c7ccc8nc(*)cnc8c7)ccc6n5)cc4)cc3)cc2)cc1 (repeat unit) |
| 213.00 °C | *c1ccc(Oc2ccc(-c3ccc(Oc4ccc(-c5cnc6cc(-c7ccc8nc(*)cnc8c7)ccc6n5)cc4)cc3)cc2)cc1 (repeat unit) |
| 72.00 °C | *Oc1cc(OC(=O)c2ccc(OCCC)cc2)c(OC(=O)CCCC(*)=O)cc1OC(=O)c1ccc(OCCC)cc1 (repeat unit) |
| 265.00 °C | *C(=O)c1ccc2c(c1)C(=O)N(c1c(-c3ccccc3)cc(-c3ccc(-c4cc(-c5ccccc5)c(N5C(=O)c6ccc(*)cc6C5=O)c(-c5ccccc5)c4)cc3)cc1-c1ccccc1)C2=O (repeat unit) |
| 57.00 °C | *COCOc1ccc(C(=O)OC(=O)c2ccc(O*)cc2)cc1 (repeat unit) |
| 303.00 °C | *c1ccc2c(c1)C(=O)N(c1ccc(C(=O)Nc3ccc(Oc4ccc(Oc5ccc(NC(=O)c6ccc(N7C(=O)c8ccc(C(*)(C(F)(F)F)C(F)(F)F)cc8C7=O)cc6)cc5)cc4)cc3)cc1)C2=O (repeat unit) |
| 228.00 °C | *Oc1cc(C)c(C(c2cc(C(C)C)c(Oc3ccc(C(=O)c4ccc(*)cc4)cc3)cc2C)c2ccccc2C(=O)O)cc1C(C)C (repeat unit) |
| 229.00 °C | *C(=O)Nc1ccc(Oc2ccccc2-c2ccccc2Oc2ccc(NC(=O)c3ccc4c(c3)C(=O)N(c3ccc(Oc5cccc(Oc6ccc(N7C(=O)c8ccc(*)cc8C7=O)cc6)c5)cc3)C4=O)cc2)cc1 (repeat unit) |
| 214.00 °C | *Oc1cccc(Oc2ccc(C(=O)c3ccc(NC(=O)c4cccc(C(=O)Nc5ccc(C(=O)c6ccc(*)cc6)cc5)c4)cc3)cc2)c1 (repeat unit) |
| 203.00 °C | *c1ccc(Oc2ccc(Oc3ccc(N4C(=O)c5ccc(Oc6ccc(Oc7ccc(Oc8ccc9c(c8)C(=O)N(*)C9=O)cc7)cc6)cc5C4=O)cc3)cc2)cc1 (repeat unit) |
| 257.00 °C | *c1ccc(-c2ccc(N3C(=O)c4ccc(Oc5ccc(Sc6ccc(Oc7ccc8c(c7)C(=O)N(*)C8=O)cc6)cc5)cc4C3=O)cc2)cc1 (repeat unit) |
| 126.00 °C | *Oc1ccc(C(=O)c2cccc(C(=O)c3ccc(*)c(CC)c3)c2)cc1CC (repeat unit) |
| 108.00 °C | *Oc1ccc(Oc2ccc(/C=N/CCCCCCCCCC/N=C/c3ccc(*)cc3)cc2)cc1 (repeat unit) |
| 179.00 °C | *Oc1ccc(/C=N/N=C/c2ccc(Oc3ccc(C(=O)c4ccc(*)cc4)cc3)cc2)cc1 (repeat unit) |
| 265.00 °C | *c1ccc(C(C)(C)c2ccc(N3C(=O)c4ccc(Oc5cccc6c(Oc7ccc8c(c7)C(=O)N(*)C8=O)cccc56)cc4C3=O)cc2)cc1 (repeat unit) |
| 126.00 °C | *CCCCCC(=O)NNC(=O)c1ccc(C(=O)NNC(=O)CCCCCOc2ccc(O*)c(C)c2)cc1 (repeat unit) |
| 269.00 ± 14 °C | *c1ccc(Oc2ccc(N3C(=O)c4ccc(Oc5ccc6c(c5)C(=O)N(*)C6=O)cc4C3=O)cc2)cc1 (repeat unit) |
